“Also recorded” adds a separate entry of the source.
Test system: CA1 pyramidal neurons in hippocampal slices
Set-up: species or system rodent
Procedure: CA1 pyramidal neurons were exposed to 1 μM cPAF or vehicle for 30-60min and simultaneously imaged and recorded by whole-cell patch clamp before and after delivery of a high-frequency stimulus (HFS: three 1s, 100 Hz trains, every 20 s) applied to Schaffer collateral axons via a bipolar stimulating electrode planted in the stratum radiatum. (A) Dendrite beading in a cPAF-exposed cell 45min after HFS, with no disruption of dendrite or spine morphology in control cells. […] (C) Excitatory synaptic transmission between Shaffer collateral axons and CA1 pyramidal neurons is strongly potentiated following HFS in control slices. […] (EPSP traces at baseline and 40 min from representative control cell and cPAF-treated beaded cell are at right.) […]
Explant hippocampal slices are exposed to HIV-1 neurotoxins±agents that reverse mitochondrial hyperpolarization. Beading and LTP are then be measured:
Hippocampal slice preparation: Brains from anesthetized P14-28 rodents are rapidly removed and cooled in sucrose based artificial cerebrospinal fluid (ACSF) containing in mM: 110 sucrose, 60 NaCl, 3 KCl, 1.25 NaH2PO4, 28 NaHCO3, 10 D-glucose, 0.5 CaCl2, 7 MgSO4, 0.6 ascorbate. The brains are blocked and fixed to a specimen stage with cyanoacrylate. Coronal slices (250-400 μm in thickness) are cut with a vibroslicer (World Precision Instruments, Fla., USA) equipped with a Peltier cooling system. The middle four to six slices of each hippocampus (with the entorhinal cortex removed) are placed into a holding chamber prior to use.
Measuring dendritic beading and postsynaptic potentials in single CA1 cells in hippocampal slices: Dendritic arbors of individual CA1 pyramidal cells are imaged while simultaneously recording excitatory postsynaptic potentials in the same cell by patch clamp recordings in whole-cell configuration. Recording pipettes ([…] resistance) are pulled from 1.5 mm borosilicate glass using a horizontal Flaming/Brown micropipette puller (Sutter Instrument Co, Calif.), fire-polished, and filled with intracellular recording solution (in mM: KCl 20, potassium gluconate 130, EGTA 0.5, HEPES 10, MgSO4 2, ATP 2.5, GTP 0.5, pH 7.3). In order to visualize dendrites of the recorded cell, Alexa 568 hydrazide (30 μM) is included in the recording pipette and is injected by small negative current pulses for 15-20 min prior to recording in order to fill the dendritic arbor. Hippocampal slices are bathed in artificial CSF (containing, in mM: NaCl 125, KCl 2.5, NaH2PO4 1.25, NaHCO3 25, CaCl2 2, MgCl2 1, D-glucose 25, oxygenated and buffered with 5% CO2). Membrane potentials of CA1 pyramidal cells are recorded in current clamp mode, and postsynaptic potentials are evoked by test pulses of constant-current stimulation applied via a bipolar stimulating electrode placed 50-200 μm away in the stratum radiatum. Bicuculline (10 μM) is included in the bath to isolate excitatory postsynaptic potentials. After at least 10 min of consistent baseline recording, a high-frequency LTP induction stimulus (HFS, consisting of four 1 s, 100 Hz trains delivered every 15 s) is applied. EPSPs are recorded for 60 min following HFS. At the same time, dendrites are imaged at 40× magnification by fluorescence microscopy, using a shutter to limit fluorescent light exposure and prevent phototoxic injury to the slice. Serial images of dendrites are compared to detect development of focal swellings along dendritic shafts following HFS. Cells are scored as beaded if swellings develop along any of their dendrites.
Field potential recording and induction of LTP in hippocampal slices: Single-cell recordings are complemented by extracellular field potential recordings: while single cell recordings allow correlation of electrophysiologic data with dendritic beading in the same cell, extracellular recordings sample responses from populations of dendrites and are less invasive. […]

[1] = HIV-1 neurotoxin with vehicle treatment

## CCCCCCCCCCCCCCCCOC[C@H](COP(=O)([O-])OCC[N+](C)(C)C)OC(=O)NC [PAF, carbamyl-platelet-activating factor]
1 μM cPAF, 30-60 min
  cells with beading elicited by HFS: half of the cells
  potentiation of EPSPs after HFS, cells that did not develop dendrite beading: smaller potentiation
  potentiation of EPSPs after HFS, cells whose dendrites did bead: failure of long-term potentiation; also recorded: not potentiated at all
[1]
  Beading Prediction: Occurs
  LTP Prediction: Failure
  Δψm: Hyperpolarized
